Data published in patent US20230330060A1, “COMPOUNDS FOR TREATMENT OF HEART FAILURE” (Sulfateq B.V., priority 2020, published 2023).

What was measured:
[1] = test system: doxorubicin-induced heart failure; test: Cardiac oxidative stress: lipid peroxidation (TBARS); format: in vivo, rat; conditions: doxorubicin rats; SUL-150 in prophylaxis or therapeutic regime
Protocol: The SUL-150 solution was sprayed homogeneously over standard food pellets (1.25 kg). […] Food pellets were freshly prepared weekly. With the approximation of 200 mg·kg^−1 SUL-150 in the food pellets and a daily dietary intake of 25 gram for a 350 gram rat, daily dosing of SUL-150 approximates 5 mg·day^−1. Male outbred Wistar rats of 250-300 grams (10-12 weeks old) were kept on a 12 h light/dark cycle and received a standard diet with distilled water ad libitum. Thirty rats were administered with doxorubicin (2 mg·kg^−1) weekly via intraperitoneal injection for 9 consecutive weeks and were left either untreated (standard chow diet, 10 rats), or received a diet supplemented with SUL-150 as prophylaxis (prior to the 1st doxorubicin administration, 10 rats) or therapy (starting after the 6th doxorubicin administration, 10 rats). Sham control rats (8 rats) were administered with saline weekly via intraperitoneal injection for 9 consecutive weeks and received a standard diet. All rats were subjected to cardiac function assessment 12 weeks after the first doxorubicin administration. Cardiac tissue samples were homogenized in ddH2O using a TissueRuptor II (Qiagen, Hilden, Germany) followed by sonication at 20 kHz for 3×1 min (Sonopuls 2000, Bandelin, Berlin, Germany) and centrifugation at 14000 g to pellet insoluble proteins. […]

[2] = test system: doxorubicin-induced heart failure; test: Cardiac ATP/ADP ratio (HPLC); format: in vivo, rat; conditions: doxorubicin rats; prophylactic or therapeutic administration of SUL-150
Protocol: (§1) SUL-150 (250 mg) was dissolved in 100% EtOH (1.02 ml) and further diluted in distilled water (68.7 ml) to obtain a clear 10 mM solution. The SUL-150 solution was sprayed homogeneously over standard food pellets (1.25 kg). Food pellets were air-dried overnight. Food pellets were freshly prepared weekly. With the approximation of 200 mg·kg^−1 SUL-150 in the food pellets and a daily dietary intake of 25 gram for a 350 gram rat, daily dosing of SUL-150 approximates 5 mg·day^−1.
(§2) Male outbred Wistar rats of 250-300 grams (10-12 weeks old) were kept on a 12 h light/dark cycle and received a standard diet with distilled water ad libitum. Thirty rats were administered with doxorubicin (2 mg·kg^−1) weekly via intraperitoneal injection for 9 consecutive weeks and were left either untreated (standard chow diet, 10 rats), or received a diet supplemented with SUL-150 as prophylaxis (prior to the 1st doxorubicin administration, 10 rats) or therapy (starting after the 6th doxorubicin administration, 10 rats). […]
Cardiac tissue samples were homogenized in Tris-saturated phenol (pH 7.4) using a TissueRuptor II (Qiagen, Hilden, Germany) to extract adenosines and separated over chloroform:water (1:1 v/v) by centrifugation. […] The eluted nucleotides were detected at a wavelength of 260 nm. Nucleotide concentration of the eluate was calculated using calibration curves for each standard nucleotide peak area. […]

[3] = test system: doxorubicin-induced heart failure; test: Cardiac mitochondrial (mtDNA) copy number; format: in vivo, rat; conditions: doxorubicin rats; administration of SUL-150
Protocol: as §1
as §2, with “rats). Sham control rats (8 rats) were administered with saline weekly via intraperitoneal injection for 9 consecutive weeks and received a standard diet.” for “rats).”
Cardiac tissue samples were homogenized in lysis buffer (100 mM NaCl, 10 mM EDTA, 0.5% SDS in 20 mM Tris-HCl, pH 7.4) containing 50 U·ml^−1 RNase I and 100 U·ml^−1 proteinase K (both ThermoFisher, Walthham, MA). […] MtDNA copy number was calculated as: […]

H9C2 cardiomyocytes = test: Quantification of phenylephrine-induced EGFP synthesis as surrogate for cell size (hypertrophy); format: cell-based, rat
Protocol: Rat H9C2 cardiomyoblasts (ATCC CRL-1446) were maintained in DMEM medium containing 10% fetal bovine serum and 1% Penicillin-Streptomycin solution (Sigma-Aldrich) and passaged when the cultures reach a confluency of 70%. Prior to experiments, H9C2 myoblasts were differentiated to cardiomyocytes by serum reduction (to 1%) and stimulation with 20 nM retinoic acid for 5 days. Differentiated H9C2 cardiomyocytes were seeded at 0.6·10^5 cells/cm^2 for all experiments.
H9C2 cardiomyocytes (0.6·10^5 cells/cm2) were infected with CMV-copGPF (MOI 10) in culture medium without serum for 24 h. H9C2 cardiomyocytes were pre-incubated with 30 μM SUL compounds under standard culture conditions for 30 min and then stimulated with phenylephrine (dose range 2·10^−5 to 1·10^−11 M) for an additional period of 24 h. Thereafter H9C2 cardiomyocytes were lysed in 100 μl soft lysis buffer (25 mM Tris, 2 mM Dithiothreitol, 2 mM EDTA, 1% Triton X-100, pH 7.4). per well and fluorescence intensity of the obtained supernatant was recorded in a CLARIOStar Plus plate reader (BMG Labtech) equipped with a FITC filter set (excitation 488 nm with 10 nm bandwidth; emission 515 with a 20 nm bandwidth).
All experiments were performed in triplicate per condition and averaged. Data obtained from two individual experiments were used for evaluation in GraphPad Prism 8.0 (GraphPad Software Inc, Ca). Average H9C2 cardiomyocyte cell size was associated to average EGFP levels using linear regression. Phenylephrine-induced EGFP synthesis was normalized, using baseline levels as 0% and maximum EGFP recordings as 100%. All datasets were normalized to vehicle controls. 4 parameter non-linear regression was used to determine the efficacy of potency of phenylephrine to induce GFP synthesis. The efficacy of SUL compounds to inhibit phenylephrine-induced EGFP synthesis was calculated as 100%-Emax, wherein Emax is the maximal effect evoked by phenylephrine.

Question: Which “Cardiac lipid peroxidation products (TBARS), FIG. 5A” value [1] does the source give for `Cc1c(C)c2c(c(C)c1O)CC[C@](C)(C(=O)N1CCNCC1)O2` [SUL-150, (R)-(6-hydroxy-2,5,7,8-tetramethylchroman-2-yl)(piperazin-1-yl)methanone] here?
Answer: mitigates cardiac lipid peroxidation

Question: What about the “Doxorubicin-induced reduction of cardiac ATP content (normalized for ADP), FIG. 6A” value [2] of the same molecule?
Answer: mitigated

Question: What about the “Doxorubicin-induced reduction of cardiac mtDNA copy number, FIG. 6B” value [3] of the same molecule?
Answer: precluded

Question: What about the “SUL EGFP Inhibition (%)” value (H9C2 cardiomyocytes; 30 μM SUL compound, calculated as 100%-Emax) of the same molecule?
Answer: 66.49%

Question: And the “Expression of EGFP induced by phenylephrine (FIG. 3)” value (H9C2 cardiomyocytes; preincubation with 30 μM compound)?
Answer: reduced the expression of EGFP
